Data published in patent US11814366B2, “Antiviral compounds and use thereof” (UNIVERSITA DEGLI STUDI DI SIENA, priority 2018, dated 2023).

Columns and labels:
ZIKAV = test: ZIKA virus plaque reduction assay on Vero cells; assay type: cell-based, Zika virus (PRVABC59); details: for SI selectivity index: ZIKAV, CC50 divided by EC50; for EC50 / EC90: Zika virus, Vero, ZIKAV infected cells
HSV-2 = HSV-2 plaque reduction assay on Vero cells; assay type: cell-based, Herpes 2 virus (HSV-2); details: for SI selectivity index: HSV-2, CC50 divided by EC50; for EC90 / EC50: Human alphaherpesvirus 2, Vero, HSV-2 infected cells; for EC90: 90% effective concentration; for EC50: compound mixed with virus 1 hour at 37° C.
H1N1 = H1N1 inhibition assay on MDCK cells; assay type: cell-based, Influenza virus H1N1; details: for SI selectivity index: H1N1, CC50 divided by EC50; for EC50 / EC90: Influenza A virus, MDCK, H1N1 infected cells; for EC50: read-out: EC50; for EC90: read-out: EC90
Method: MDCK cells were pre-plated in 96-well plates. The following day, concentrations of compounds ranging from 50 μM to 0.0001 μM in DMSO were mixed with H1N1 (MOI 0.05 pfu/cell) and incubated for 1 hour at 37° C. The mixtures were subsequently added to the cells for 1 h at 37° C., after a washout, cells were overlaid with MEM for 16 h at 37° C. Cells were then fixed and subjected to specific immunostaining using a Flu A monoclonal antibody (Merck 5001) in order to visualize infected cells. EC50 were calculated by comparing numbers of infected cells in treated and untreated wells. The effective concentration producing 50% reduction in plaque formation (EC50) was determined using Prism software. The selectivity index (SI) was calculated by dividing the CC50 by the EC50 value.

in vitro [1] = details: African green monkey
in vitro [2] = details: dog
DENV-2 = test: DENV plaque reduction assay on Huh-7 cells; assay type: cell-based, Dengue virus; details: for SI selectivity index: DENV-2, CC50 divided by EC50; for EC50: Dengue virus, DENV2, Huh-7, DENV-2 infected cells
Method: The effect of compounds on DENV infection was evaluated by plaque reduction assay. Huh-7 cells were pre-plated 24 h in advance in 24-well plates at a density of 10^5 cells. Concentrations of compounds ranging from 50 μM to 0.0001 μM in DMSO were mixed with DENV-2 (MOI 0.01 pfu/cell) and incubated for 1 hour at 37° C. The mixtures were subsequently added to the cells, which were then incubated at 37° C. for 2 h. The virus inoculum was then removed and the cells washed and overlaid with a medium containing 1.2% methylcellulose (Sigma). After further incubation at 37° C. for 72 h cells were fixed and stained with 0.1% crystal violet in 20% ethanol and viral plaques counted. The effective concentration producing 50% reduction in plaque formation (EC50) were determined using Prism software by comparing drug-treated wells with wells treated with medium and DMSO. The selectivity index (SI) was calculated by dividing the CC50 by the EC50 value.

[3] = Cell viability (MTS) assay, Huh-7 cells; assay type: cell-based; details: human, conditions of the DENV-2 assay (Table 6)
Method: Cell viability was measured using the MITS [3-(4,5-dimethylthiazol-2-yl)-5-(3 carboxy methoxy phenyl)-2-(4-sulfophenyl)-2H-tetrazolium] assay. Cell cultures were seeded in 96-well plates and were incubated with different concentrations of compounds of the invention in triplicate under the same experimental conditions described for the antiviral assays. Cell viability was determined using the CellTiter 96 Proliferation Assay Kit (Promega, Madison, WI, USA) according to the manufacturer's instructions. Absorbances were measured using a Microplate Reader (Model 680, BIORAD) at 490 nm. The effect on cell viability at different concentrations of the compound was expressed as a percentage, by comparing absorbances of treated cells with those of cells incubated with culture medium and equal volumes of vehicle. The 50% cytotoxic concentrations (CC50) and 95% confidence intervals (CIs) were determined using Prism software (Graph-Pad Software, San Diego, CA).

Cytotoxicity, XTT test = details: human
HIV Strain NL4-3 = test: HIV-1 inhibition assay, strain NL4-3, TZM-bl cells, CPRG readout; assay type: cell-based
Method: The human TZM-bl indicator cell line (obtained from the NIH AIDS reagents program, cat. Nr 8129, www.aidsreagent.org) was maintained at 37° C. and 5% CO2 in Dulbecco's modified Eagle's medium (DMEM) medium containing 10% fetal bovine serum, 50 μg/ml penicillin, and 50 μg/ml streptomycin. The HIV-1 laboratory strains NL (AD8) (NIH AIDS reagents program, cat. Nr, 11346) and NL4.3 (NIH AIDS reagents program, cat. Nr. 114) were titrated as previously reported by Tiberi et al (2014). Briefly, serial 5-fold dilutions of each virus were made in quadruplicate wells in 96-well culture plates, in a total volume of 100 μl of growth medium (DMEM), for a total of 8 dilution steps. Freshly trypsinized cells (20,000 cells in 100 μl of growth medium containing 75 μg/mL DEAE-dextran) were added to each well, and the plates were incubated at 37° C. in a humidified 5% CO2-95% air environment. After 48 h of incubation, the medium was removed and viral infection was quantified using a β-galactosidase (CPRG) assay (Roche). Twenty thousand TZM-bl cells/well were seeded in 96-well plates in complete DMEM supplemented with 30 μg/ml DEAE-dextran (Sigma-Aldrich). Three hundred times the 50% tissue culture infective dose (TCID50)/ml of each strain was pretreated for 1 h at 37° C. with six serial dilutions (10000 nM, 2000 nM, 400 nM, 80 nM, 16 nM, 3.2 nM) and then added to the cells. Vehicle (0.1% dimethyl sulfoxide [DMSO])-treated cells served as a negative control. […] After 2 days, viral infection was quantified using a CPRG assay (Roche cat nr 11379119103). The inhibitory curves were fitted by nonlinear regression, allowing for the calculation of the 50% effective concentration (EC50) using the Prism software. To evaluate the cell toxicity of the compounds, the metabolic XTT [2,3-bis-(2-methoxy-4-nitro-5-sulfophenyl)-2H-tetrazolium-5-carboxanilide] test (Sigma-Aldrich) was performed according to the manufacturer's instructions.

HIV Strain AD8 = test: HIV-1 inhibition assay, strain NL(AD8), TZM-bl cells, CPRG readout; assay type: cell-based
[4] = CC50, conditions of the HSV-2 assay (Table 2)
[5] = CC50, conditions of the ZIKAV assay (Table 3)
[6] = Human immunodeficiency virus 1, NL43, virus pretreated 1 h at 37° C. with compound
[7] = virus pretreated 1 h at 37° C. with compound

N#Cc1ccc(-c2ccc(/C=C3\C(=O)NC(=S)N(CCc4ccccc4)C3=O)[nH]2)cc1 [Compound 15d, 4-(5-((Z)-(tetrahydro-4,6-dioxo-3-phenethyl-2-thioxopyrimidin-5(6H)-lidene)methyl)-1H-pyrrol-2-yl)benzonitrile]
SI selectivity index (ZIKAV): >272.7 | EC50 (ZIKAV): 1.11 µM | EC90 (ZIKAV): 26.6 µM | SI selectivity index (HSV-2): >8.7 | EC90 (HSV-2): 88.2 µM | EC50 (HSV-2): 34.5 µM | SI selectivity index (H1N1): >12 | EC50 (H1N1): 25 µM | EC90 (H1N1): 372 µM | CC50 (in vitro [1]; [4]): > 300 µM | CC50 (in vitro [1]; [5]): > 300 µM | CC50 (in vitro [2]): > 300 µM

O=C1NC(=S)N(CCc2ccccc2)C(=O)/C1=C/c1ccc(-c2ccc(-c3nnn[nH]3)cc2)[nH]1 [Compound 15c, (Z)-5-((5-(4-(1H-tetrazol-5-yl)phenyl)-1H-pyrrol-2-yl)methylene)-dihydro-3-henethyl-2-thioxopyrimidine-4,6(1H,5H)-dione]
SI selectivity index (ZIKAV): >12000 | EC50 (ZIKAV): 0.0258 µM | EC90 (ZIKAV): 0.365 µM | SI selectivity index (HSV-2): >1435 | EC90 (HSV-2): 0.618 µM | EC50 (HSV-2): 0.209 µM | SI selectivity index (DENV-2): 20.6 | EC50 (DENV-2): 3.4 µM | SI selectivity index (H1N1): >379 | EC50 (H1N1): 0.793 µM | EC90 (H1N1): 1.76 µM | CC50 (in vitro [1]; [4]): > 300 µM | CC50 (in vitro [1]; [5]): > 300 µM | CC50 [3]: 70 µM | CC50 (in vitro [2]): > 300 µM

O=C1NC(=S)N(Cc2ccccn2)C(=O)/C1=C\c1ccc(-c2ccc(-c3nnn[nH]3)cc2)[nH]1 [Compound 15p, (Z)-5-((5-(4-(1H-tetrazol-5-yl)phenyl)-1H-pyrrol-2-yl)methylene)-1-(pyridin-2-ylmethyl)-2-thioxodihydropyrimidine-4,6(1H,5H)-dione]
SI selectivity index (DENV-2): 7.3 | EC50 (DENV-2): 12.2 µM | CC50 [3]: 89 µM

O=C1NC(=S)NC(=O)C1=Cc1ccc(-c2ccc(C(=O)O)c(O)c2)[nH]1 [Compound 17b, 4-(5-((4,6-dioxo-2-thioxotetrahydropyrimidin-5(2H)-ylidene)methyl)-1H-pyrrol-2-yl)-2-hydroxybenzoic Acid]
CC50 (Cytotoxicity, XTT test): > 20 µM | SI selectivity index (HSV-2): >429.8 | EC90 (HSV-2): 7.47 µM | EC50 (HSV-2): 0.698 µM | EC50 (HIV Strain NL4-3; [6]): 0.16 µM | CC50 (in vitro [1]; [4]): > 300 µM

maraviroc [reference compound]
EC50 (HIV Strain AD8; [7]): 0.0367 µM | EC50 (HIV Strain NL4-3; [7]): > 20 µM

Cc1nnc(C(=O)NC(C)(C)c2nc(C(=O)NCc3ccc(F)cc3)c(O)c(=O)n2C)o1 [Ral, raltegravir, reference compound]
CC50 (Cytotoxicity, XTT test): > 20 µM | EC50 (HIV Strain NL4-3; [6]): 0.021 µM

O=C1NC(=S)NC(=O)C1=Cc1ccc(-c2cc(C(F)(F)F)ccc2Cl)[nH]1 [Compound 17a, 5-((5-(2-chloro-5-(trifluoromethyl)phenyl)-1H-pyrrol-2-yl)methylene)-2-thioxodihydropyrimidine-4,6(1H,5H)-dione]
CC50 (Cytotoxicity, XTT test): > 20 µM

O=C(O)c1ccc(-c2ccc(CC3C(=O)NC(=S)N(CCc4ccccc4)C3=O)[nH]2)cc1O (stereo not drawn) [Compound 18, 4-(5-((hexahydro-4,6-dioxo-1-phenethyl-2-thioxopyrimidin-5-yl)methyl)-1H-pyrrol-2-yl)-2-hydroxybenzoic Acid]
SI selectivity index (ZIKAV): >849.8 | EC50 (ZIKAV): 0.0353 µM | EC90 (ZIKAV): 0.308 µM | SI selectivity index (HSV-2): >417.2 | EC90 (HSV-2): 0.128 µM | EC50 (HSV-2): 0.712 µM | SI selectivity index (H1N1): >238 | EC50 (H1N1): 1.26 µM | EC90 (H1N1): 14.9 µM | CC50 (in vitro [1]; [4]): > 300 µM | CC50 (in vitro [1]; [5]): > 300 µM | CC50 (in vitro [2]): > 300 µM

O=C1NC(=S)N(Cc2ccccc2)C(=O)/C1=C\c1ccc(-c2ccc(C(=O)O)c(O)c2)[nH]1 [Compound 15a, (Z)-4-(5-((1-benzyl-4,6-dioxo-2-thioxotetrahydropyrimidin-5(2H)-ylidene)methyl)-1H-pyrrol-2-yl)-2-hydroxybenzoic Acid]
CC50 (Cytotoxicity, XTT test): > 20 µM | EC50 (HIV Strain NL4-3; [6]): 0.217 µM

O=C(O)c1ccc(-c2ccc(/C=C3\SC(=S)N(Cc4ccc(Cl)cc4)C3=O)[nH]2)cc1O [Compound 7b, (Z)-4-(5-((3-(4-chlorobenzyl)-4-oxo-2-thioxothiazolidin-5-ylidene)methyl)-1H-pyrrol-2-yl)-2-hydroxybenzoic Acid]
CC50 (Cytotoxicity, XTT test; TZM-bl cells): > 20 µM | EC50 (HIV Strain AD8; Human immunodeficiency virus 1, virus pretreated 1 h at 37° C. with compound): 0.532 µM

O=C1NC(=S)N(CCc2ccc(O)cc2)C(=O)/C1=C\c1ccc(-c2ccc(C(=O)O)c(O)c2)[nH]1 [Compound 15f, (Z)-2-hydroxy-4-(5-((1-(4-hydroxyphenethyl)-4,6-dioxo-2-thioxotetrahydropyrimidin-5(2H)-ylidene)methyl)-1H-pyrrol-2-yl)benzoic Acid]
SI selectivity index (DENV-2): 3.6 | EC50 (DENV-2): 7.8 µM | CC50 [3]: 28 µM
